# B1: papain (protein, UniProt P00784 134-345, looked up)
# Papain: IPEYVDWRQKGAVTPVKNQGSCGSCWAFSAVVTIEGIIKIRTGNLNEYSEQELLDCDRRSYGCNGGYPWSALQLVAQYGIHYRNTYPYEGVQRYCRSREKGPYAAKTDGVRQVQPYNEGALLYSIANQPVSVVLEAAGKDFQLYRGGIFVGPCGNKVDHAVAAVGYGPNYILIKNSWGTGWGENGYIRIKRGTGNSYGVCGLYTSSFYPVKN
# notes: standard (enzyme)
# Assays:
# Format in all cases: cell-based
# [1] = Cell proliferation, Neutral Red detection method; conditions: compared to the untreated control after 48 hours of treatment
# Text: (§1) In another aspect, this invention also refers to an in vitro method of assessing skin repair, that is suitable for studying a variety of active ingredients, comprised of the following steps: • Step 1—Initial Indication: quantification of the FGF-2 growth factor through the flow cytometry technique; • Step 2—Inflammation: quantification of inflammatory cytokines (IL-1B, IL-6, IL-8, IL-10, IL-12 p70) through the flow cytometry technique; • Step 3—Cell proliferation and migration: • Cell proliferation through the Neutral Red detection method; • Cell migration through the ECIS and Scratch method; • Step 4—Remodeling and Resolution • Quantification of matrix metalloproteinase MMP-13 through the Enzyme-Linked Immunosorbent Assay (ELISA) technique; • Determination of collagenase/gelatinase enzyme activity (MMP-1 and MMP-3) and elastase (MMP-1 2) through the enzyme inhibition assay.
# (§2) All the tests were conducted in triplicate, with experiments repeated at least twice, using negative control groups (no stimulation with active ingredients) and positive control groups (stimulated with molecules modulating the marker to be assayed). […]
# as §1, with “As a result,” for “In another aspect,”, “project encompassed the following” for “invention also refers to an”, “assays:” for “method of assessing skin repair, that is suitable for studying a variety of active ingredients, comprised of the following steps:”, “FGF2” for “FGF-2”, “assay. […]” for “assay.”
# [2] = tested on: MMP-13; assay: Quantification of MMP-13 by ELISA; conditions: compared to the untreated control
# Text: as §1, §2
# as §1, with “As a result,” for “In another aspect,”, “project encompassed the following” for “invention also refers to an”, “assays:” for “method of assessing skin repair, that is suitable for studying a variety of active ingredients, comprised of the following steps:”, “FGF2” for “FGF-2”
# [3] = tested on: IL-8; assay: Quantification of inflammatory cytokines by flow cytometry (IL-8); conditions: in terms of negative control
# Text: as §1, §2
# [4] = tested on: IL-10; assay: Quantification of inflammatory cytokines by flow cytometry (IL-10); conditions: in terms of negative control
# Text: as §1, §2
# [5] = tested on: FGF-2; assay: Quantification of FGF-2 growth factor by flow cytometry; conditions: in comparison to the negative control
# Text: as §1, §2
Molecule,increase in cell proliferation (in words) [1],"MMP-13 quantification, increase [2]",IL-8 increase [3],IL-10 increase [4] [times],FGF-2 increase [5]
NC(=O)NC1NC(=O)NC1=O (stereo not drawn) [allantoin],did not present significant increases,threefold increases,–,–,–
madecassoside,did not present significant increases,threefold increases,twofold increase,2.3,up to 115 times
B1,did not present significant increases,threefold increases,–,–,–

# Reference: US20190282492A1, “COSMETIC COMPOSITIONS FOR SKIN REPARATION” (Natura Cosméticos S.A., priority 2016, published 2019)
